Measurements taken from the supplement of paper PMC11061612.

Experiments:
Experiment in all cases: Bliss excess, mean over the matrix (fraction); higher = more synergy
A498 (Kidney Carcinoma) = test system: A498 (Kidney Carcinoma)
Procedure, shortened: (§1)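 After 24 hours at 37°C and 5% CO2 in 1536-well plates, cells in DMEM/F12 or RPMI plus 10% FBS received two-drug dose matrices for 72 hours. Viability came from CellTiter-Glo 2.0 luminescence and was scaled as inhibition, anchored at 0 by vehicle wells and at 1 by blank wells. Combination Emax is taken as the second-highest inhibition in the matrix, and Bliss excess as the observed combination effect less EA + EB − EA·EB, with EA and EB the single-agent effects.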

ARH-77 (Non-Cancerous) = test system: ARH-77 (Non-Cancerous)
Procedure, shortened: as §1

[1] = test system: BICR22 (Oral Cavity Carcinoma)
Procedure, shortened: as §1

[2] = test system: CAL-29 (Bladder Carcinoma)
Procedure, shortened: as §1

[3] = test system: CAPAN-2 (Pancreatic Carcinoma)
Procedure, shortened: as §1

[4] = test system: COLO-320-HSR (Colorectal Carcinoma)
Procedure, shortened: as §1

[5] = test system: COLO-824 (Breast Carcinoma)
Procedure, shortened: as §1

GI-ME-N (Neuroblastoma) = test system: GI-ME-N (Neuroblastoma)
Procedure, shortened: as §1

IGR-37 (Melanoma) = test system: IGR-37 (Melanoma)
Procedure, shortened: as §1

[6] = test system: KARPAS-422 (B-Cell Non-Hodgkin's Lymphoma)
Procedure, shortened: as §1

LN-405 (Glioblastoma) = test system: LN-405 (Glioblastoma)
Procedure, shortened: as §1

[7] = test system: NCI-H1650 (Lung Adenocarcinoma)
Procedure, shortened: as §1

[8] = test system: NCI-H2066 (Squamous Cell Lung Carcinoma)
Procedure, shortened: as §1

[9] = test system: NCI-H64 (Small Cell Lung Carcinoma)
Procedure, shortened: as §1

[10] = test system: ONS-76 (Other Solid Carcinomas)
Procedure, shortened: as §1

[11] = test system: OS-RC-2 (Kidney Carcinoma)
Procedure, shortened: as §1

PA-1 (Ovarian Carcinoma) = test system: PA-1 (Ovarian Carcinoma)
Procedure, shortened: as §1

[12] = test system: PANC-10-05 (Pancreatic Carcinoma)
Procedure, shortened: as §1

[13] = test system: SISO (Cervical Carcinoma)
Procedure, shortened: as §1

[14] = test system: SK-MES-1 (Squamous Cell Lung Carcinoma)
Procedure, shortened: as §1

Structure (SMILES)	Bliss excess (A498 (Kidney Carcinoma))	Bliss excess (ARH-77 (Non-Cancerous))	Bliss excess [1]	Bliss excess [2]	Bliss excess [3]	Bliss excess [4]	Bliss excess [5]	Bliss excess (GI-ME-N (Neuroblastoma))	Bliss excess (IGR-37 (Melanoma))	Bliss excess [6]	Bliss excess (LN-405 (Glioblastoma))	Bliss excess [7]	Bliss excess [8]	Bliss excess [9]	Bliss excess [10]	Bliss excess [11]	Bliss excess (PA-1 (Ovarian Carcinoma))	Bliss excess [12]	Bliss excess [13]	Bliss excess [14]
CN(CCO)CC[C@H](CSc1ccccc1)Nc1ccc(S(=O)(=O)NC(=O)c2ccc(N3CCC([C@@H](O)c4ccccc4-c4ccc(Cl)cc4)CC3)cc2)cc1S(=O)(=O)C(F)(F)F [AZD4320] + C1CN(CCC1(C(=O)N[C@@H](CCO)C2=CC=C(C=C2)Cl)N)C3=NC=NC4=C3C=CN4 [Capivasertib] (first compound max 1 µM, 7x7, partner max 3 µM)	-0.0049	0.0277	0.0051	-0.0397	-0.0534	-0.0136	-0.0103	-0.0729	-0.0389	0.0401	-0.0454	-0.0427	0.0311	-0.028	-0.0469	-0.0547	0.0592	-0.0338	-0.0332	-0.0608
CN(CCO)CC[C@H](CSc1ccccc1)Nc1ccc(S(=O)(=O)NC(=O)c2ccc(N3CCC([C@@H](O)c4ccccc4-c4ccc(Cl)cc4)CC3)cc2)cc1S(=O)(=O)C(F)(F)F [AZD4320] + C=CCn1c(=O)c2cnc(Nc3ccc(N4CCN(C)CC4)cc3)nc2n1-c1cccc(C(C)(C)O)n1 [AZD1775] (first compound max 1 µM, partner max 1 µM)	0.0368	-0.0449	0.0848	0.0124	0.0665	-0.0268	0.0803	-0.0524	0.0354	0.0569	0.0173	-0.0096	-0.0534	0.0886	-0.0196	-0.0254	0.0773	-0.0174	-0.0116	0.0356
CN(CCO)CC[C@H](CSc1ccccc1)Nc1ccc(S(=O)(=O)NC(=O)c2ccc(N3CCC([C@@H](O)c4ccccc4-c4ccc(Cl)cc4)CC3)cc2)cc1S(=O)(=O)C(F)(F)F [AZD4320] + CCN(CCO)CCCOc1ccc2c(Nc3cc(CC(=O)Nc4cccc(F)c4)[nH]n3)ncnc2c1 [AZD2811] (first compound max 1 µM, 7x7, partner max 1 µM)	-0.0371	0.0992	0.0119	0.103	0.0013	-0.0087	0.0272	-0.057	-0.0204	0.14	0.014	-0.0164	-0.0391	0.158	0.0817	-0.0659	0.0664	-0.0758	0.0049	-0.0328
CN(CCO)CC[C@H](CSc1ccccc1)Nc1ccc(S(=O)(=O)NC(=O)c2ccc(N3CCC([C@@H](O)c4ccccc4-c4ccc(Cl)cc4)CC3)cc2)cc1S(=O)(=O)C(F)(F)F [AZD4320] + CN(C)CCCOc1ccc(-c2ccc3ncc4c(c3c2)n(C2CCOCC2)c(=O)n4C)cn1 [AZD0156] (first compound max 1 µM, 7x7, partner max 1 µM)	-0.0358	-0.0283	-0.0364	-0.0187	-0.033	-0.0136	0.0031	-0.0454	-0.0148	0.0093	0.0093	-0.0443	-0.092	0.0003	-0.0494	-0.0706	-0.0528	-0.0489	-0.0343	-0.005
CN(CCO)CC[C@H](CSc1ccccc1)Nc1ccc(S(=O)(=O)NC(=O)c2ccc(N3CCC([C@@H](O)c4ccccc4-c4ccc(Cl)cc4)CC3)cc2)cc1S(=O)(=O)C(F)(F)F [AZD4320] + C[C@@H]1COCCN1C2=NC(=NC(=C2)C3(CC3)[S@](=N)(=O)C)C4=C5C=CNC5=NC=C4 [AZD6738] (first compound max 1 µM, 7x7, partner max 10 µM)	-0.157	-0.0049	-0.0433	0.0426	-0.0461	0.0161	-0.0365	-0.0403	0.0151	0.0896	0.0063	0.0045	-0.0437	-0.0404	-0.0386	-0.0807	0.0242	-0.0476	-0.0078	0.0228
CN(CCO)CC[C@H](CSc1ccccc1)Nc1ccc(S(=O)(=O)NC(=O)c2ccc(N3CCC([C@@H](O)c4ccccc4-c4ccc(Cl)cc4)CC3)cc2)cc1S(=O)(=O)C(F)(F)F [AZD4320] + C[C@@H](Nc1cc(F)cc(F)c1)c1cc(C(=O)N(C)C)cc2c(=O)cc(N3CCOCC3)oc12 [AZD8186] (first compound max 1 µM, 7x7, partner max 3 µM)	0.0903	0.0067	-0.0108	-0.0215	-0.0099	0.0504	0.0422	0.0272	0.029	0.0234	-0.0504	0.0346	-0.0671	-0.0372	0.0221	-0.0197	0.0411	-0.073	0.0326	0.031
